Measurements: patent US20100267561A1, “HERBICIDAL PYRIDAZINONE DERIVATIVES” (priority 2007, published 2010)

How the values were obtained:
Format in all cases: in vivo
[1] = tested on: Russian thistle (Salsola iberica); assay: Test B pre-/postemergence plant response; conditions: Preemergence
In short: (§1)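 Preemergence and postemergence (plants 2-18 cm, 1- to 4-leaf stage) applications used test chemicals in a non-phytotoxic solvent with surfactant. Plants were held in a greenhouse 13 to 15 days, then rated visually against controls on a 0-100 scale (0 no effect, 100 complete control).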

[2] = tested on: velvetleaf (Abutilon theophrasti); assay: Test B pre-/postemergence plant response
In short: as §1

corn (Zea mays) = assay: Test B pre-/postemergence plant response
In short: as §1

[3] = tested on: bermudagrass (Cynodon dactylon); assay: Test B pre-/postemergence plant response; conditions: for Bermudagrass plant response rating: 8 g ai/ha
In short: as §1

[4] = tested on: Italian ryegrass (Lolium multiflorum); assay: Test B pre-/postemergence plant response
In short: as §1

[5] = tested on: yellow nutsedge (Cyperus esculentus); assay: Test B pre-/postemergence plant response
In short: as §1

[6] = tested on: downy bromegrass (Bromus tectorum); assay: Test B pre-/postemergence plant response; conditions: for Bromegrass, Downy plant response rating: 8 g ai/ha
In short: as §1

[7] = tested on: woolly cupgrass (Eriochloa villosa); assay: Test B pre-/postemergence plant response
In short: as §1

[8] = tested on: giant foxtail (Setaria faberii); assay: Test B pre-/postemergence plant response
In short: as §1

[9] = tested on: cocklebur (Xanthium strumarium); assay: Test B pre-/postemergence plant response; conditions: for Cocklebur plant response rating: 8 g ai/ha
In short: as §1

[10] = tested on: umbrella sedge (Cyperus difformis); assay: Test B flooded paddy test plant response; conditions: Flood (flooded paddy test), scale 0 to 100, 0 no effect, 100 complete control
In short: (§2)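 2-leaf plants; pots flooded 3 cm above soil; compound added to paddy water; depth maintained. Greenhouse 13–15 d. Visual rating vs controls, 0 (no effect) to 100 (complete control); dash = no result.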

[11] = tested on: barnyardgrass (Echinochloa crus-galli); assay: Test B flooded paddy test plant response; conditions: Flood (flooded paddy test), scale 0 to 100, 0 no effect, 100 complete control
In short: as §2

[12] = tested on: ducksalad (Heteranthera limosa); assay: Test B flooded paddy test plant response; conditions: Flood (flooded paddy test), scale 0 to 100, 0 no effect, 100 complete control
In short: as §2

rice (Oryza sativa) = assay: Test B flooded paddy test plant response; conditions: Flood (flooded paddy test), scale 0 to 100, 0 no effect, 100 complete control
In short: as §2

[13] = 8 g ai/ha, postemergence, 0-100 scale
[14] = Postemergence, 16 g ai/ha, scale 0 to 100
[15] = Postemergence, 31 g ai/ha, scale 0 to 100
[16] = Postemergence, 62 g ai/ha, scale 0 to 100, 0 no effect, 100 complete control
[17] = Preemergence, 31 g ai/ha, scale 0 to 100 (0 no effect, 100 complete control)
[18] = Preemergence, 8 g ai/ha, scale 0 to 100
[19] = Preemergence, 16 g ai/ha, scale 0 to 100
[20] = Preemergence, 31 g ai/ha, 0 to 100 scale, 0 no effect, 100 complete control
[21] = Preemergence, 62 g ai/ha, scale 0 to 100
[22] = Preemergence, 16 g ai/ha, scale 0 to 100 (0 no effect, 100 complete control)

`Cc1cc(-c2ccc(Cl)cc2)nn1-c1c(OC(=O)Oc2ccccc2)cnn(C)c1=O` [Compound 54] was tested, and the “Plant response rating, Russian Thistle” value ([1]; 31 g ai/ha, scale 0 to 100 (0 no effect, 100 complete control)) was 0, the “Plant response rating, Russian Thistle” value ([1]; 62 g ai/ha, scale 0 to 100) was 0 and the “Russian Thistle plant response rating” value ([1]; 8 g ai/ha, scale 0 to 100) was 0. The “Russian Thistle plant response rating” value ([1]; 16 g ai/ha, scale 0 to 100) was 0, the “Velvetleaf plant response rating” value [2, 13] was 0 and the “Plant response rating, Velvetleaf” value [2, 14] was 0. For the same molecule, the “Plant response rating, Velvetleaf” value [2, 15] was 0, the “Plant response rating, Velvetleaf” value [2, 16] was 0 and the “Plant response rating, Velvetleaf” value [2, 17] was 0. For the same molecule, the “Plant response rating, Velvetleaf” value ([2]; Preemergence, 62 g ai/ha, 0 to 100 scale, 0 no effect, 100 complete control) was 0, the “Velvetleaf plant response rating” value [2, 18] was 0 and the “Velvetleaf plant response rating” value [2, 19] was 0. For the same molecule, the “Corn plant response rating” value (corn (Zea mays); [13]) was 0, the “Plant response rating, Corn” value (corn (Zea mays); [14]) was 0 and the “Plant response rating, Corn” value (corn (Zea mays); [15]) was 25. For the same molecule, the “Plant response rating, Corn” value (corn (Zea mays); [16]) was 100, the “Plant response rating, Corn” value (corn (Zea mays); [20]) was 65 and the “Plant response rating, Corn” value (corn (Zea mays); [21]) was 85. The “Corn plant response rating” value (corn (Zea mays); [18]) was 0, the “Corn plant response rating” value (corn (Zea mays); [19]) was 0 and the “Bermudagrass plant response rating” value ([3]; postemergence, 0-100 scale) was 100. The “Plant response rating, Bermudagrass” value [3, 14] was 100, the “Plant response rating, Bermudagrass” value [3, 15] was 100 and the “Plant response rating, Bermudagrass” value [3, 16] was 100. For the same molecule, the “Bermudagrass plant response rating” value ([3]; Preemergence, scale 0 to 100 (0 no effect, 100 complete control)) was 0, the “Plant response rating, Bermudagrass” value [3, 22] was 0 and the “Plant response rating, Bermudagrass” value [3, 20] was 0. For the same molecule, the “Plant response rating, Bermudagrass” value [3, 21] was 0, the “Ryegrass, Italian plant response rating” value [4, 13] was 75 and the “Plant response rating, Ryegrass, Italian” value [4, 14] was 95. For the same molecule, the “Plant response rating, Ryegrass, Italian” value [4, 15] was 95, the “Plant response rating, Ryegrass, Italian” value [4, 16] was 100 and the “Plant response rating, Ryegrass, Italian” value [4, 17] was 90. The “Plant response rating, Ryegrass, Italian” value [4, 21] was 100, the “Ryegrass, Italian plant response rating” value [4, 18] was 20 and the “Ryegrass, Italian plant response rating” value [4, 19] was 90. The “Nutsedge, Yellow plant response rating” value [5, 13] was 0, the “Plant response rating, Nutsedge, Yellow” value [5, 14] was 0 and the “Plant response rating, Nutsedge, Yellow” value [5, 15] was 0. The “Plant response rating, Nutsedge, Yellow” value [5, 16] was 0, the “Plant response rating, Nutsedge, Yellow” value [5, 17] was 0 and the “Plant response rating, Nutsedge, Yellow” value [5, 21] was 0. The “Nutsedge, Yellow plant response rating” value [5, 18] was 0, the “Nutsedge, Yellow plant response rating” value [5, 19] was 0 and the “Bromegrass, Downy plant response rating” value ([6]; postemergence, 0-100 scale) was 5. The “Plant response rating, Bromegrass, Downy” value [6, 14] was 50, the “Plant response rating, Bromegrass, Downy” value [6, 15] was 50 and the “Plant response rating, Bromegrass, Downy” value [6, 16] was 70. For the same molecule, the “Plant response rating, Bromegrass, Downy” value [6, 22] was 0, the “Plant response rating, Bromegrass, Downy” value [6, 20] was 70 and the “Plant response rating, Bromegrass, Downy” value [6, 21] was 85. The “Bromegrass, Downy plant response rating” value ([6]; Preemergence, scale 0 to 100) was 0, the “Cupgrass, Woolly plant response rating” value [7, 13] was 80 and the “Plant response rating, Cupgrass, Woolly” value [7, 14] was 90. For the same molecule, the “Plant response rating, Cupgrass, Woolly” value [7, 15] was 98, the “Plant response rating, Cupgrass, Woolly” value [7, 16] was 100 and the “Plant response rating, Cupgrass, Woolly” value [7, 20] was 0. For the same molecule, the “Plant response rating, Cupgrass, Woolly” value [7, 21] was 0, the “Cupgrass, Woolly plant response rating” value [7, 18] was 0 and the “Cupgrass, Woolly plant response rating” value [7, 19] was 0. For the same molecule, the “Foxtail, Giant plant response rating” value [8, 13] was 85, the “Plant response rating, Foxtail, Giant” value [8, 14] was 98 and the “Plant response rating, Foxtail, Giant” value [8, 15] was 100. For the same molecule, the “Plant response rating, Foxtail, Giant” value [8, 16] was 100, the “Plant response rating, Foxtail, Giant” value [8, 20] was 20 and the “Plant response rating, Foxtail, Giant” value [8, 21] was 55. The “Foxtail, Giant plant response rating” value [8, 18] was 0, the “Foxtail, Giant plant response rating” value [8, 19] was 0 and the “Cocklebur plant response rating” value ([9]; postemergence, 0-100 scale) was 0. For the same molecule, the “Plant response rating, Cocklebur” value [9, 14] was 0, the “Plant response rating, Cocklebur” value [9, 15] was 0 and the “Plant response rating, Cocklebur” value [9, 16] was 0. The “Plant response rating, Cocklebur” value [9, 22] was 0, the “Plant response rating, Cocklebur” value [9, 20] was 0 and the “Plant response rating, Cocklebur” value [9, 21] was 0. For the same molecule, the “Cocklebur plant response rating” value ([9]; Preemergence, scale 0 to 100) was 0, the “Plant response rating, Sedge, Umbrella” value ([10]; 62 g ai/ha) was 0 and the “Plant response rating, Sedge, Umbrella” value ([10]; 250 g ai/ha) was 0. For the same molecule, the “Plant response rating, Barnyardgrass” value ([11]; 62 g ai/ha) was 20, the “Plant response rating, Barnyardgrass” value ([11]; 250 g ai/ha) was 80 and the “Plant response rating, Ducksalad” value ([12]; 62 g ai/ha) was 0. The “Plant response rating, Ducksalad” value ([12]; 250 g ai/ha) was 0, the “Plant response rating, Rice” value (rice (Oryza sativa); 62 g ai/ha) was 15 and the “Plant response rating, Rice” value (rice (Oryza sativa); 250 g ai/ha) was 80.
